{"source": "BindingDB's records for patent US20250026748", "about": "(Repare Therapeutics, 2025)", "note": "pIC50: −log10 of the molar value."}
{"target": "DNA polymerase theta (Homo sapiens, UniProt O75417)", "sequence (O75417 whole entry)": "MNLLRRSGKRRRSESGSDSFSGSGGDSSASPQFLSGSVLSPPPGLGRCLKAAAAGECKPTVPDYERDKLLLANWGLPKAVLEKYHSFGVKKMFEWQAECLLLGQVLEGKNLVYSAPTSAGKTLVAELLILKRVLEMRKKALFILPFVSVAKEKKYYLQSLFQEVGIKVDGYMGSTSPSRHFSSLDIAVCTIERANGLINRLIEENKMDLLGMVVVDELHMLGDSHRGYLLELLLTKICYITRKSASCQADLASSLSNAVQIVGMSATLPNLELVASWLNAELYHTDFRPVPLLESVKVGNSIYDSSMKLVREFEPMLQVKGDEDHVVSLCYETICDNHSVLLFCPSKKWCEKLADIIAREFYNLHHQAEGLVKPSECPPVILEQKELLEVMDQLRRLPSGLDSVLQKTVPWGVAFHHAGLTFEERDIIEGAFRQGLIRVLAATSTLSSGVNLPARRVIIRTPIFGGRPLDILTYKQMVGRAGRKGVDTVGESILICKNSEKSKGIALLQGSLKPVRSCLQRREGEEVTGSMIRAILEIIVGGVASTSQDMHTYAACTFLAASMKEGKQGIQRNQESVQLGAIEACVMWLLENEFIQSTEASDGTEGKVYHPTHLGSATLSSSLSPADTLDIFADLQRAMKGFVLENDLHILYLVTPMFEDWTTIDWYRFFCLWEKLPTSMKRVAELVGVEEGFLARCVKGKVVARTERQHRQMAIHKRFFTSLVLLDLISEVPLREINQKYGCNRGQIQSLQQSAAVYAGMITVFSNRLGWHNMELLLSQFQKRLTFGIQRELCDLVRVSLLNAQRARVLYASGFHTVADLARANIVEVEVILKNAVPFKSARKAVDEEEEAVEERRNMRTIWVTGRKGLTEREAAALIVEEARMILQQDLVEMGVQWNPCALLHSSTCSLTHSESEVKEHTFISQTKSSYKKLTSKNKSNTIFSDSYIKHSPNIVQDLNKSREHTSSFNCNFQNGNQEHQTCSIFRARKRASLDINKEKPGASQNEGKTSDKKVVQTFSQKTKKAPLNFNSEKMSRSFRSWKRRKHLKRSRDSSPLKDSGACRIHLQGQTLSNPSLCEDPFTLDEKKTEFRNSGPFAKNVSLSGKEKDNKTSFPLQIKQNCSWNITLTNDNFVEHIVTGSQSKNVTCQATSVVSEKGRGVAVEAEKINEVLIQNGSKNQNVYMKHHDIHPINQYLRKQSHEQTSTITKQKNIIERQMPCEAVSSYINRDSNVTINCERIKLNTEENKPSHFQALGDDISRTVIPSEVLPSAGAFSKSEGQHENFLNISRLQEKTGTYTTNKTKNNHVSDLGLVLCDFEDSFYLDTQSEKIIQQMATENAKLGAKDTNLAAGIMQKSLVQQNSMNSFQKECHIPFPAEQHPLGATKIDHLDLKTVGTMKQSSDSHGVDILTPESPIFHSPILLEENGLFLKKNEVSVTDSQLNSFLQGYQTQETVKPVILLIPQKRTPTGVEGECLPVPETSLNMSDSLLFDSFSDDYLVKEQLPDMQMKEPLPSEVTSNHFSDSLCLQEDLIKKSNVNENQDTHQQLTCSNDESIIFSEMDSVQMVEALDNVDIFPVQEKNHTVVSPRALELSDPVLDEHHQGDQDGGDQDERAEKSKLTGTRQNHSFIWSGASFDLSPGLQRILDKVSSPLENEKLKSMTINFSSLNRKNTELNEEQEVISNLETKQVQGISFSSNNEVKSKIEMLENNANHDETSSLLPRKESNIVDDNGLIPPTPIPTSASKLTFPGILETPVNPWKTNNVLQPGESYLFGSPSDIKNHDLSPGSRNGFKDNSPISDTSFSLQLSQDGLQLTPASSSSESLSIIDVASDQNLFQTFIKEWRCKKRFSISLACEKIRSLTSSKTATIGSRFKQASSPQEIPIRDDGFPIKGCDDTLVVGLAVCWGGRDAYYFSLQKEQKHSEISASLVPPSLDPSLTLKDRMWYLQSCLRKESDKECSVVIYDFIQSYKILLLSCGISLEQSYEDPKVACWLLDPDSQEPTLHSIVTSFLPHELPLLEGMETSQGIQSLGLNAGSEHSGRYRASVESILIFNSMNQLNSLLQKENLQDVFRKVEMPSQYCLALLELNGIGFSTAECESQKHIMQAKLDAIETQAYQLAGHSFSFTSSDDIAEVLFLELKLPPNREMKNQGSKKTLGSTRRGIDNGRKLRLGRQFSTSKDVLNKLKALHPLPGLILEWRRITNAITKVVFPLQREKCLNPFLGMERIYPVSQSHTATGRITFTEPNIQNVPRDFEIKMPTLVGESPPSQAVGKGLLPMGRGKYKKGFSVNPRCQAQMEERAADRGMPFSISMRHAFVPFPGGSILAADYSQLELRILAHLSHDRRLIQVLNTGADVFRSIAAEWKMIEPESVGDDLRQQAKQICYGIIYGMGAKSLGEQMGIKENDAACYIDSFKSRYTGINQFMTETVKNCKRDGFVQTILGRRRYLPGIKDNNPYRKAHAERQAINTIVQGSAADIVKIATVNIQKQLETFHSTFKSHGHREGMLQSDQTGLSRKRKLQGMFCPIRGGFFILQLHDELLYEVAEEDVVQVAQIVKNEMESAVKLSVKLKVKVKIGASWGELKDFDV", "assay": "Polθ ATPase Enzymatic Assay (0.5 nM Enzyme Concentration)", "experimental": "Following pre-incubation with inhibitors, DNA (Fork C) at 20 nM and ATP at 100 μM are added to start the reaction. Enzymatic reaction proceeds at rt for 180 min ATP consumption is measured using the ADP-Glo assay from Promega."}
{"smiles": "COc1cnc(Cl)cc1-c1cnccc1C(=O)Nc1ncc(C#CC2CC2)s1", "note": "[US20250026748, Compound 38]", "pIC50": 8.96}
{"smiles": "COc1cnc(C(F)F)cc1-c1cc(-c2ccn(C)n2)ncc1C(=O)Nc1nnc(C#Cc2cc(C)[nH]n2)s1", "note": "[US20250026748, Compound 370]", "pIC50": 8.54}
{"smiles": "COc1cnc(Cl)cc1-c1cc(-c2nnc(C)o2)ccc1C(=O)Nc1nnc(C#CC2CC2)s1", "note": "[US20250026748, Compound 305]", "pIC50": 9.42}
{"smiles": "COc1ccc(Cl)cc1-c1cnccc1C(=O)Nc1nnc(C#CC2CC2)s1", "note": "[US20250026748, Compound 57]", "pIC50": 9.43}
{"smiles": "COc1ccc(C(F)(F)F)cc1-c1cn(C)c(=O)cc1C(=O)Nc1nnc(C#CC2CCOC2)s1", "note": "(configuration not stated) [US20250026748, Compound 340]", "pIC50": 7.92}
{"smiles": "COc1cnc(C(F)F)cc1-c1nc(-c2ccn(C)n2)cnc1C(=O)Nc1nnc(C#CC2CC2)s1", "note": "[US20250026748, Compound 140]", "pIC50": 7.42}
{"smiles": "COc1ccc(Cl)cc1-c1cn(Cc2nccs2)c(=O)cc1C(=O)Nc1nnc(C#CC2CC2)s1", "note": "[US20250026748, Compound 63]", "pIC50": 8.72}
